Test results as given in ChEMBL document CHEMBL2390830 (Eur J Med Chem, 2013).
Where a name gives a salt, the structure may show the parent alone.

Legend:
[1] = target: T1, 5-hydroxytryptamine receptor 1A (Rattus norvegicus, UniProt P19327); experiment: Displacement of [3H]8-OH-DPAT from 5-HT1A receptor in Wistar rat cerebral hippocampus membrane after 10 mins; type: tissue-based; details: read-out: Ki(app)
T1 sequence (P19327 whole entry): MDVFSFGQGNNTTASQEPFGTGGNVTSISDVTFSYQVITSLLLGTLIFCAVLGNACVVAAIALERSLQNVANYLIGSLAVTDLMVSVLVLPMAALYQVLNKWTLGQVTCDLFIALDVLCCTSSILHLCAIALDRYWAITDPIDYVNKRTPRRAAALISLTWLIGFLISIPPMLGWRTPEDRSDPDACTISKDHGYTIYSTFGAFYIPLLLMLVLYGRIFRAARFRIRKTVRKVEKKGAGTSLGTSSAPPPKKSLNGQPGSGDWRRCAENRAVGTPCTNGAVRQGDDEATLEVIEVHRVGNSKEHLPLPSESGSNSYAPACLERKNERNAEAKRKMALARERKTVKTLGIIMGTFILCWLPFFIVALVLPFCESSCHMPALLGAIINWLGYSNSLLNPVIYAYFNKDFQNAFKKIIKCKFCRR

[2] = Binding affinity to peripheral BZD receptor (unknown origin) by radioligand displacement assay; design: species or system Homo sapiens
[3] = Binding affinity to P2X receptor (unknown origin) by radioligand displacement assay; design: species or system Homo sapiens
[4] = target: T2, 5-hydroxytryptamine receptor 2C (Homo sapiens, UniProt P28335); experiment: Binding affinity to human 5-HT2C receptor by radioligand displacement assay
T2 sequence (P28335 whole entry): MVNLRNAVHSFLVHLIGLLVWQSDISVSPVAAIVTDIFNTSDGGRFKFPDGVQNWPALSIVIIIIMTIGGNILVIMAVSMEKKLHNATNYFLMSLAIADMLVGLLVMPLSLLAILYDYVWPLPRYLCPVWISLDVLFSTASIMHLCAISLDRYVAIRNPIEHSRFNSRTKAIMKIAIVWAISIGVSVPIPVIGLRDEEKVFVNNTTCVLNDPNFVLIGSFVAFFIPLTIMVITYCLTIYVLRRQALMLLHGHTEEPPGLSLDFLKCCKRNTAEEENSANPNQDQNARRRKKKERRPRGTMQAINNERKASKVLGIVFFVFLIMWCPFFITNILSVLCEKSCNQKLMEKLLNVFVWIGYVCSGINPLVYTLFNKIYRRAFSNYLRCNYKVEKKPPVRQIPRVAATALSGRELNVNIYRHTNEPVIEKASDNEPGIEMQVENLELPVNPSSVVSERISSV

[5] = Binding affinity to human PACAP receptor by radioligand displacement assay
[6] = target: T3, Muscarinic acetylcholine receptor M5 (Homo sapiens, UniProt P08912); experiment: Binding affinity to human muscarinic M5 receptor by radioligand displacement assay
T3 sequence (P08912 whole entry): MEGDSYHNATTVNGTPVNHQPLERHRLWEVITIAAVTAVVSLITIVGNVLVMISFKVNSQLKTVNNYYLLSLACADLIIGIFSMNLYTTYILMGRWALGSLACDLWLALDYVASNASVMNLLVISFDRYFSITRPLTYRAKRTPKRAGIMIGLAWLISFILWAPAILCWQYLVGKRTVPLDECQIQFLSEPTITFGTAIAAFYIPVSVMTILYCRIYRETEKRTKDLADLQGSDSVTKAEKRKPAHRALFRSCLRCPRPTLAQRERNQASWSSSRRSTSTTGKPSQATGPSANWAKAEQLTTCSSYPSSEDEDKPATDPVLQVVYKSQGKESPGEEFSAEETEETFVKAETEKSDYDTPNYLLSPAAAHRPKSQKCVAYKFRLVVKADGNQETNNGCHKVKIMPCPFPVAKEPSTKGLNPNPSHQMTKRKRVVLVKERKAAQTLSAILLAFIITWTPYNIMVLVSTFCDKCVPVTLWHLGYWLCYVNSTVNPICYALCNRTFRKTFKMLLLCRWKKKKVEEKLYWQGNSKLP

[7] = Binding affinity to P2Y receptor (unknown origin) by radioligand displacement assay; design: species or system Homo sapiens
[8] = target: Voltage-gated L-type calcium channel (Homo sapiens, UniProt Q13936+Q13698+Q01668+O60840); experiment: Binding affinity to L-Ca2+ channel verapamil site (unknown origin) by radioligand displacement assay
[9] = Binding affinity to human PCP receptor by radioligand displacement assay
[10] = Binding affinity to GABA-gated chloride channel (unknown origin) by radioligand displacement assay; design: species or system Homo sapiens
[11] = Binding affinity to sodium channel site 2 (unknown origin) by radioligand displacement assay; design: species or system Homo sapiens
[12] = Binding affinity to somatostatin receptor (unknown origin) by radioligand displacement assay; design: species or system Homo sapiens

For `COc1ccccc1N1CCN(CCCCN2Cc3ccc4ccccc4c3C2=O)CC1`, the Ki [1] was 13 nM.

`CCC(C)N(C)C(=O)c1cc2ccccc2c(-c2ccccc2Cl)n1` (centres undefined) [PK-11195] gave an IC50 [2] of 0.99 nM and a Ki [2] of 0.89 nM.

For `O=C1c2c(ccc3ccccc23)CN1CCCCN1CCN(c2cccc(Cl)c2Cl)CC1`, the Ki [1] was 31 nM.

In the case of `O=C1c2c(c(Cl)nc3ccccc23)CN1CCCCCN1CCN(c2cccc(Cl)c2Cl)CC1`, the Ki [1] is reported as 878 nM.

For `Nc1ncnc2c1ncn2[C@@H]1O[C@H](COP(=O)(O)CP(=O)(O)OP(=O)(O)O)[C@@H](O)[C@H]1O` [DIPHOSPHOMETHYLPHOSPHONIC ACID ADENOSYL ESTER], the IC50 [3] was 2.1 nM and the Ki [3] was 0.97 nM.

In the case of `COc1cc(OC)c(C(=O)CCCCN2CCC3(CC2)NC(=O)NC3=O)cc1NS(=O)(=O)c1ccc(C(F)(F)F)cc1` [RS-102,221], the IC50 [4] is reported as 2.7 nM and the Ki [4] is reported as 0.91 nM.

Work on `O=C1c2cc3ccccc3nc2CN1CCCCN1CCN(c2cccc(Cl)c2Cl)CC1` yielded a Ki [1] of 30 nM.

`COc1ccccc1N1CCN(CCCN2Cc3ccc4ccccc4c3C2=O)CC1` gave a Ki [1] of 46 nM.

`COc1ccccc1N1CCN(CCCN2Cc3nc4ccccc4cc3C2=O)CC1` showed a Ki [1] of 104 nM.

In the case of `COc1ccccc1N1CCN(CCCCCN2Cc3nc4ccccc4cc3C2=O)CC1`, the Ki [1] is reported as 20 nM.

`CC[C@H](C)[C@H](NC(=O)CNC(=O)[C@H](CC(=O)O)NC(=O)[C@H](CO)NC(=O)[C@@H](N)Cc1cnc[nH]1)C(=O)N[C@@H](Cc1ccccc1)C(=O)N[C@H](C(=O)N[C@@H](CC(=O)O)C(=O)N[C@@H](CO)C(=O)N[C@@H](Cc1ccc(O)cc1)C(=O)N[C@@H](CO)C(=O)N[C@@H](CCCNC(=N)N)C(=O)N[C@@H](Cc1ccc(O)cc1)C(=O)N[C@@H](CCCNC(=N)N)C(=O)N[C@@H](CCCCN)C(=O)N[C@@H](CCC(N)=O)C(=O)N[C@@H](CCSC)C(=O)N[C@@H](C)C(=O)N[C@H](C(=O)N[C@@H](CCCCN)C(=O)N[C@@H](CCCCN)C(=O)N[C@@H](Cc1ccc(O)cc1)C(=O)N[C@@H](CC(C)C)C(=O)N[C@@H](C)C(=O)N[C@@H](C)C(=O)N[C@H](C(=O)N[C@@H](CC(C)C)C(=O)NCC(=O)N[C@@H](CCCCN)C(=O)N[C@@H](CCCNC(=N)N)C(=O)N[C@@H](Cc1ccc(O)cc1)C(=O)N[C@@H](CCCCN)C(=O)N[C@@H](CCC(N)=O)C(=O)N[C@@H](CCCNC(=N)N)C(=O)N[C@H](C(=O)N[C@@H](CCCCN)C(=O)N[C@@H](CC(N)=O)C(=O)N[C@@H](CCCCN)C(N)=O)C(C)C)C(C)C)C(C)C)[C@@H](C)O` showed an IC50 [5] of 0.057 nM and a Ki [5] of 0.049 nM.

In the case of `C[N+]1(C)CCC(OC(=O)C(c2ccccc2)c2ccccc2)CC1` [4-DAMP], the IC50 [6] is reported as 0.45 nM and the Ki [6] is reported as 0.22 nM.

Work on `O=C1c2cc3ccccc3nc2CN1CCCCCN1CCN(c2cccc(Cl)c2Cl)CC1` yielded a Ki [1] of 58 nM.

With `O=C1c2c(ccc3ccccc23)CN1CCCCCN1CCN(c2cccc(Cl)c2Cl)CC1` the Ki [1] was 490 nM.

Molecule `Nc1ncnc2c1ncn2[C@H]1C[C@H](O)[C@@H](COP(O)(=S)OP(=O)(O)OP(=O)(O)O)O1` (some centres undefined) has an IC50 [7] of 45 nM and a Ki [7] of 23 nM.

With `COc1ccc(CCN(C)CCCC(C#N)(c2cc(OC)c(OC)c(OC)c2)C(C)C)cc1OC` (centres undefined) [GALLOPAMIL] the IC50 [8] was 1.1 ×10⁻⁸ M and the Ki [8] was 5.4 ×10⁻⁹ M.

Molecule `C[C@]12N[C@H](Cc3ccccc31)c1ccccc12` [DIZOCILPINE MALEATE] has an IC50 [9] of 4.3 nM and a Ki [9] of 2.4 nM.

Work on `C=C(C)[C@@H]1[C@H]2OC(=O)[C@@H]1[C@]1(O)C[C@H]3O[C@]34C(=O)O[C@H]2[C@]14C` [PICROTOXININ] yielded an IC50 [10] of 120 nM and a Ki [10] of 96 nM.

Work on `COc1ccccc1N1CCN(CCCCN2Cc3c(Cl)nc4ccccc4c3C2=O)CC1` yielded a Ki [1] of 17 nM.

Molecule `COc1ccccc1N1CCN(CCCCN2Cc3nc4ccccc4cc3C2=O)CC1` has a Ki [1] of 15 nM.

`COc1ccc(C(=O)O[C@H]2CC[C@@]3(C)[C@@H]4CC[C@H]5[C@]6(O)C[C@H](O)[C@@]7(O)[C@@H](CN8C[C@@H](C)CC[C@H]8[C@@]7(C)O)[C@]6(O)C[C@@]53O[C@]24O)cc1OC` [VERATRIDINE] showed an IC50 [11] of 5200 nM and a Ki [11] of 4700 nM.

For `O=C1c2c(c(Cl)nc3ccccc23)CN1CCCCN1CCN(c2cccc(Cl)c2Cl)CC1`, the Ki [1] was 31 nM.

`C[C@H](N)C(=O)NCC(=O)N[C@H]1CSSC[C@@H](C(=O)O)NC(=O)[C@H](CO)NC(=O)[C@H]([C@@H](C)O)NC(=O)[C@H](Cc2ccccc2)NC(=O)[C@H]([C@@H](C)O)NC(=O)[C@H](CCCCN)NC(=O)[C@H](Cc2c[nH]c3ccccc23)NC(=O)[C@H](Cc2ccccc2)NC(=O)[C@H](Cc2ccccc2)NC(=O)[C@H](CC(N)=O)NC(=O)[C@H](CCCCN)NC1=O` [SOMATOSTATIN] gave an IC50 [12] of 0.33 nM and a Ki [12] of 0.2 nM.
